Assay results taken from ChEMBL document CHEMBL4118278, “Design, synthesis and biological evaluation of deuterated Vismodegib for improving pharmacokinetic properties” (Bioorg Med Chem Lett, 2018).

Columns and labels:
Assay type in all cases: ADME, organism-based
Conditions in all cases: in vivo
[1] = Tmax in CD-1 mouse at 5 mg/kg, po administered as single dose by LC-MS/MS analysis
[2] = AUC (0 to infinity) in CD-1 mouse at 5 mg/kg, po administered as single dose by LC-MS/MS analysis; set-up: dose 5 mg/kg, route oral, time infinity
[3] = AUC (0 to t) in CD-1 mouse at 5 mg/kg, po administered as single dose by LC-MS/MS analysis
[4] = Cmax in CD-1 mouse at 5 mg/kg, po administered as single dose by LC-MS/MS analysis; set-up: dose 5 mg/kg, route oral
[5] = Half life in CD-1 mouse at 5 mg/kg, po administered as single dose by LC-MS/MS analysis

| Tmax [1] | AUC(0-inf) [2] | AUC(0-t) [3] | Cmax [4] | half-life [5] | Structure (SMILES) |
| --- | --- | --- | --- | --- | --- |
| 1 h | 17100 ng·h/mL | 6510 ng·h/mL | 1870 ng/mL | 8.55 h | [2H]c1nc(-c2cc(NC(=O)c3ccc(S(C)(=O)=O)cc3Cl)ccc2Cl)c([2H])c([2H])c1[2H] |
| 1 h | 6110 ng·h/mL | 6110 ng·h/mL | 972 ng/mL | 2.56 h | [2H]c1cc(Cl)c(-c2nc([2H])c([2H])c([2H])c2[2H])c([2H])c1NC(=O)c1ccc(S(C)(=O)=O)cc1Cl |
| 1 h | 8290 ng·h/mL | 6280 ng·h/mL | 1610 ng/mL | 2.82 h | [2H]c1cc(Cl)c(-c2ccccn2)c([2H])c1NC(=O)c1ccc(S(C)(=O)=O)cc1Cl |
| 1 h | 7660 ng·h/mL | 4050 ng·h/mL | 854 ng/mL | 5.62 h | CS(=O)(=O)c1ccc(C(=O)Nc2ccc(Cl)c(-c3ccccn3)c2)c(Cl)c1 [VISMODEGIB] |
